Assay [1] concerns EGFR. Kind of assay: EGFR phosphorylation in E-cad transfected H157 cell lines. It is filed as cell-based. The note with it: E-cad transfected H157 cell lines treated with EGF. Here is the method:
Cell Culture, Drugs and MTS assay. Twenty NSCLC cell lines were used: squamous (NCI-H157, HCC95, HCC15 and H441), large-cell (H460, H1299, H2126 and H1264, a derivative of H460), adeno (Calu3, A549, H2122, H1648, H520, HCC78, HCC193, H2009, HCC44 and H3255) and bronchioalveolar (H358 and H322). The NSCLC cell lines, HCC78, H2126, HCC95, H1299, HCC193, HCC44, HCC15, H2009 were obtained from UTSW and the H3255 was a gift from Dr. Bruce Johnson. All lines were cultured in RPMI medium 1640 under standard conditions. […] The drugs were diluted in fresh media before each experiment, and the final dimethyl sulfoxide concentration was <0.1%. […] Growth inhibition was assessed by MTS (3-(4,5-dimethylthiazol-2-yl)-5-(3-carboxymethoxyphenyl)-2-(4-sulfophenyl)2H-tetrazolium, inner salt) assay (Promega, Madison, Wis.). […] The absorbency of each well is measured using an automated plate reader. The data was analyzed using a SlideWrite program to determine the IC50 of the drug. […] After sonication, the Bradford assay was used for protein quantification. […]
The effect of E-cad on NSCLC cell lines apoptotic response to gefitinib was assessed by transfecting a gefitinib-resistant cell line, H157, with an E-cad-encoding adenovirus. […] Higher expression of E-cad was detected in the H157-E-cad-3 cell line compared to the H157-E-cad-3 cell line. […]

Assay [2] concerns 1483 head & neck cancer cell line. The assay is described as follows: Modified MTT growth inhibition assay. It is filed as cell-based. The settings on record: SNDX275 added as first drug. Here is the method:
(§1) Combination administrations were performed as sequential treatments where the HDAC inhibitor was administer prior to the EGFR inhibitor, or simultaneous treatments in selected cell lines. Concentrations of HDAC inhibitors and EGFR inhibitors are indicated as μM concentrations in all experiments. SNDX275 was administered in three increasing concentrations, with a variety of ranges depending upon the cell line.
(§2) Drugs were diluted in fresh medium before each experiment, and the final DMSO concentration was <0.1%. Growth inhibition was assessed using a modified MTT assay. 2×10^3 cells were plated in each well of 96-well flat-bottomed microtiter plates and drugs were added the next day. […] The microtiter plates were incubated for 4 hours at 37° C. The visible absorbance of each well was measured using an automated plate reader (Molecular Devices, Sunnyvale, Calif.), and data were analyzed using SlideWrite to determine the drug IC50.
Background: Formazan colour is commonly taken as a measure of viable cells.

In assay [3] the test system is HPAFII pancreatic cancer cell line. Kind of assay: Modified MTT growth inhibition assay. It is filed as cell-based. The note with it: SNDX275 added as first drug. The protocol:
as §1, §2

The test system of assay [4] is MSK2922 head & neck cancer cell line. The assay is described as follows: Modified MTT growth inhibition assay. It counts as cell-based. The note with it: SNDX275 added as first drug. The protocol:
as §1, §2

The test system of assay [5] is FaDu head & neck cancer cell line. The assay is described as follows: Modified MTT growth inhibition assay. It is filed as cell-based. Here is the method: as §1, §2
Assay [6] has as its system Detroit562 head & neck cancer cell line. Kind of assay: Modified MTT growth inhibition assay. It counts as cell-based. Here is the method:
as §1, §2

The subject of assay [7] is 584 head & neck cancer cell line. The assay is described as follows: Modified MTT growth inhibition assay. It is filed as cell-based. The note with it: SNDX275 added as first drug. The protocol: as §1, §2
Assay [8] relates to HS766T pancreatic cancer cell line. The assay is described as follows: Modified MTT growth inhibition assay. It is filed as cell-based. The protocol: as §1, §2
Assay [9] relates to Panc03.27 pancreatic cancer cell line. Kind of assay: Modified MTT growth inhibition assay. It is filed as cell-based. The settings on record: Panc 03.27, both drugs added at the same time. Here is the method:
as §1, §2

The subject of assay [10] is UMSCC19 head & neck cancer cell line. Kind of assay: Modified MTT growth inhibition assay. It is filed as cell-based. Here is the method: as §1, §2
Assay [11] has as its system Panc02.03 pancreatic cancer cell line. The assay is described as follows: Modified MTT growth inhibition assay. It is filed as cell-based. The settings on record: Panc 02.03. The protocol: as §1, §2
Assay [12] concerns Panc04.03 pancreatic cancer cell line. Kind of assay: Modified MTT growth inhibition assay. It is filed as cell-based. The note with it: Panc 04.03. Here is the method: as §1, §2
In assay [13] the test system is UMSCC22B head & neck cancer cell line. Kind of assay: Modified MTT growth inhibition assay. It is filed as cell-based. Here is the method: as §1, §2
Assay [14] relates to NSCLC patients. The settings on record: single agent, phase I studies including chemotherapy resistant NSCLC patients; cited from earlier work.
Assay [15] concerns H460 NSCLC cell line. The assay is described as follows: Apoptosis and cell death analysis. The note with it: 10 μM gefitinib. It is filed as cell-based. Here is the method: (§3) The effect of gefitinib on inducing apoptosis and cell death in NSCLC cell lines sensitive and resistant to gefitinib was evaluated. […] Expression of E-cad was evaluated in these cell lines.
The test system of assay [16] is H157 NSCLC cell line. Kind of assay: Apoptosis and cell death analysis. It is filed as cell-based. The settings on record: 10 μM gefitinib. The protocol: as §3
The subject of assay [17] is H520 NSCLC cell line. The assay is described as follows: Apoptosis and cell death analysis. It is filed as cell-based. The settings on record: 10 μM gefitinib. The protocol: as §3
In assay [18] the test system is A549 NSCLC cell line. Kind of assay: Apoptosis and cell death analysis. It counts as cell-based. The note with it: 10 μM gefitinib. Here is the method:
The effect of gefitinib on inducing apoptosis and cell death in NSCLC cell lines sensitive and resistant to gefitinib was evaluated. […].

The mark [19] stands for this setting: erlotinib 0.06 μM alone, SNDX275 added as first drug.
Setting [20] is: erlotinib 0.06 μM alone, both drugs added at the same time.
[21] abbreviates: erlotinib 3.00 μM alone, SNDX275 added as first drug.
The mark [22] stands for this setting: erlotinib 3.00 μM alone, both drugs added at the same time.
Where [23] appears, read: erlotinib 6.0 μM alone, SNDX275 added as first drug.
Setting [24] is: erlotinib 6.0 μM alone, both drugs added at the same time.
[25] abbreviates: erlotinib 10.0 μM alone, both drugs added at the same time.
The mark [26] stands for this setting: erlotinib 0.3 μM alone, SNDX275 added as first drug.
[27] abbreviates: erlotinib 0.3 μM alone, both drugs added at the same time.
Where [28] appears, read: erlotinib 2.0 μM alone, SNDX275 added as first drug.
[29] abbreviates: erlotinib 2.0 μM alone, both drugs added at the same time.

Regarding “EGF: Epidermal growth factor purchased from R&D Systems Inc. (NSDSECPLSHDGYCLHDGVCMYIEALDKYACNCVVGYIGERCQYRDLKWWELR; Epidermal growth factor; UniProt P01133 971-1023, looked up)”, the “increase in EGFR phosphorylation” value in assay [1] is recorded as “two fold increase”.

Consider `C#Cc1cccc(Nc2ncnc3cc(OCCOC)c(OCCOC)cc23)c1` [erlotinib], for which the surviving in assay [2] (erlotinib 6.0 μM alone) came to 67.497%; in [2] (erlotinib 8.0 μM alone), 52.894%; in [2] (erlotinib 10.0 μM alone), 43.652%; in assay [3] (erlotinib 0.03 μM alone), 79.346%; in assay [3] (erlotinib 1.00 μM alone) it was 49.804%; in assay [3] (erlotinib 6.00 μM alone) it was 28.170%. For the same molecule, the surviving in assay [4] (erlotinib 0.5 μM alone) came out at 76.960%; in [4] (erlotinib 5.0 μM alone), 49.683%; in assay [4] (erlotinib 10.0 μM alone) it was 16.390%; in [5] (setting [19]), 83.931%; in assay [5] (setting [20]) it was 98.703%; in assay [5] (erlotinib 0.30 μM alone, SNDX275 added as first drug) it was 49.364%. The surviving was 55.823% in [5] (erlotinib 0.30 μM alone, both drugs added at the same time); 24.489% in assay [5] (setting [21]); 27.463% in [5] (setting [22]); 81.459% in assay [6] (setting [19]); 73.569% in [6] (setting [20]); 56.459% in assay [6] (erlotinib 0.60 μM alone, SNDX275 added as first drug). For the same molecule, the surviving is 40.826% in assay [6] (erlotinib 0.60 μM alone, both drugs added at the same time); 28.582% in assay [6] (setting [21]); 17.946% in assay [6] (setting [22]); 70.581% in assay [7] (erlotinib 3.0 μM alone); 49.941% in assay [7] (erlotinib 7.0 μM alone); 25.563% in assay [7] (erlotinib 10.0 μM alone). Besides, the surviving turned out to be 71.523% in assay [8] (erlotinib 1.0 μM alone, SNDX275 added as first drug); 77.921% in assay [8] (erlotinib 1.0 μM alone, both drugs added at the same time); 49.547% in assay [8] (setting [23]); 46.785% in assay [8] (setting [24]); 37.138% in [8] (setting [25]); 73.670% in [9] (erlotinib 0.03 μM alone). The surviving was 43.685% in assay [9] (erlotinib 0.60 μM alone); 19.177% in [9] (erlotinib 6.00 μM alone); 70.495% in assay [10] (erlotinib 0.03 μM alone, SNDX275 added as first drug (first table)); 89.125% in [10] (erlotinib 0.03 μM alone, SNDX275 added as first drug (second table)); 40.636% in [10] (erlotinib 2.00 μM alone, SNDX275 added as first drug (first table)); 49.820% in assay [10] (erlotinib 2.00 μM alone, SNDX275 added as first drug (second table)). The surviving in [10] (erlotinib 6.00 μM alone, SNDX275 added as first drug (first table)) came out at 22.618%; in assay [10] (erlotinib 6.00 μM alone, SNDX275 added as first drug (second table)), 29.934%; in assay [11] (setting [26]) it was 63.194%; in [11] (setting [27]), 54.857%; in assay [11] (setting [28]), 53.632%; in [11] (setting [29]) it was 53.313%. The surviving in assay [11] (setting [23]) was 27.404%; in assay [11] (setting [24]), 36.701%; in [12] (setting [26]), 77.213%; in [12] (setting [27]) it was 65.993%; in assay [12] (setting [28]), 53.936%; in assay [12] (setting [29]) it was 63.603%. Besides, the surviving in assay [12] (setting [23]) came out at 30.300%; in assay [12] (setting [24]), 47.335%; in assay [13] (erlotinib 3.0 μM alone, SNDX275 added as first drug) it was 79.839%; in assay [13] (erlotinib 3.0 μM alone, both drugs added at the same time), 78.643%; in assay [13] (erlotinib 7.0 μM alone, SNDX275 added as first drug), 53.060%; in [13] (erlotinib 7.0 μM alone, both drugs added at the same time), 56.412%. Further, the surviving in assay [13] (erlotinib 10.0 μM alone, SNDX275 added as first drug) was 29.839%; in [13] (setting [25]), 49.762%. Moreover, the response rates entry in assay [14] is “about 10%”.

On to `COc1cc2ncnc(Nc3ccc(F)c(Cl)c3)c2cc1OCCCN1CCOCC1` [gefitinib], for which the “apoptotic or necrotic effect” value in assay [15], in assay [16], in assay [17] and in assay [18] was “no apoptotic or necrotic effect” in each case. The response rates entry in assay [14] is “about 10%”.

(Values after patent publication US20120141479A1, “Histone Deacetylase Inhibitors Sensitize Cancer Cells To Epidermal Growth Factor Inhibitors” (priority 2007, published 2012).)
